The source of these data is the supplement of paper PMC10307832.

Holding throughout (assay): relative viability (nuclei count vs DMSO), 5 days (fraction); higher = more cells survive
Compound in the experiment “Carfilzomib + Tozasertib”: CC(C)C[C@H](NC(=O)[C@H](CCc1ccccc1)NC(=O)CN1CCOCC1)C(=O)N[C@@H](Cc1ccccc1)C(=O)N[C@@H](CC(C)C)C(=O)[C@@]1(C)CO1 [Carfilzomib] + Cc1cc(Nc2cc(N3CCN(C)CC3)nc(Sc3ccc(NC(=O)C4CC4)cc3)n2)n[nH]1 [Tozasertib] (partner 0.1 µM)
An outline of the steps: (§1)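 Nuclei were stained with Hoechst during a one-step fixation (final 0.05% Triton X-100, 1% formaldehyde, 1 ug/ml Hoechst) carried out 5 days after dosing, then counted on 4× images. The cells, lung cancer lines in 1536-well plates, had been dosed by pin tool the day after seeding with one drug alone or a fixed anchor-drug dose plus five library-drug doses (not always all listed) in √10 steps. Relative viability is the nuclei count in treated wells divided by that in vehicle wells, and each value is the median of duplicate plates.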

Compound in the experiment “Crizotinib + Palbociclib”: C[C@@H](Oc1cc(-c2cnn(C3CCNCC3)c2)cnc1N)c1c(Cl)ccc(F)c1Cl [Crizotinib] + CC(=O)c1c(C)c2cnc(Nc3ccc(N4CCNCC4)cn3)nc2n(C2CCCC2)c1=O [Palbociclib] (partner 0.5 µM)
The essentials: as §1

Compound in the experiment “Carfilzomib + Phenformin”: CC(C)C[C@H](NC(=O)[C@H](CCc1ccccc1)NC(=O)CN1CCOCC1)C(=O)N[C@@H](Cc1ccccc1)C(=O)N[C@@H](CC(C)C)C(=O)[C@@]1(C)CO1 [Carfilzomib] + N=C(N)NC(=N)NCCc1ccccc1 [Phenformin] (partner 250 µM)
An outline of the steps: as §1

Compound in the experiment “Carfilzomib + Pemetrexed”: CC(C)C[C@H](NC(=O)[C@H](CCc1ccccc1)NC(=O)CN1CCOCC1)C(=O)N[C@@H](Cc1ccccc1)C(=O)N[C@@H](CC(C)C)C(=O)[C@@]1(C)CO1 [Carfilzomib] + Nc1nc2[nH]cc(CCc3ccc(C(=O)N[C@@H](CCC(=O)O)C(=O)O)cc3)c2c(=O)[nH]1 [Pemetrexed] (partner 0.2 µM)
The essentials:
as §1

As to NCI-H3122, the relative viability in the experiment with Carfilzomib + Tozasertib (first compound 0.001 µM) was 0.371; in the experiment with Carfilzomib + Tozasertib (first compound 0.003162 µM), 0.428; with Carfilzomib + Tozasertib (first compound 0.01 µM) it was 0.418; in the experiment with Carfilzomib + Tozasertib (first compound 0.03162 µM), 0.38; with Carfilzomib + Tozasertib (first compound 0.1 µM), 0.132; with Crizotinib + Palbociclib (first compound 0.01 µM), 0.176. The relative viability with Crizotinib + Palbociclib (first compound 0.03162 µM) is 0.184; in the experiment with Crizotinib + Palbociclib (first compound 0.1 µM) it was 0.16; in the experiment with Crizotinib + Palbociclib (first compound 0.3162 µM), 0.2; with Crizotinib + Palbociclib (first compound 1 µM) it was 0.187; with Carfilzomib + Phenformin (first compound 0.001 µM), 0.375; with Carfilzomib + Phenformin (first compound 0.003162 µM) it was 0.446. Also, the relative viability came out at 0.366 in the experiment with Carfilzomib + Phenformin (first compound 0.01 µM); 0.278 with Carfilzomib + Phenformin (first compound 0.03162 µM); 0.0931 with Carfilzomib + Phenformin (first compound 0.1 µM); 0.194 with Carfilzomib + Pemetrexed (first compound 0.001 µM); 0.198 in the experiment with Carfilzomib + Pemetrexed (first compound 0.003162 µM); 0.207 with Carfilzomib + Pemetrexed (first compound 0.01 µM). Further, the figures for the relative viability in the experiment with Carfilzomib + Pemetrexed (first compound 0.03162 µM) and in the experiment with Carfilzomib + Pemetrexed (first compound 0.1 µM) were 0.189 and 0.154, respectively.

For the cell line PC-3 [JPC-3], the relative viability worked out at 0.859 with Carfilzomib + Tozasertib (first compound 0.001 µM); 0.926 with Carfilzomib + Tozasertib (first compound 0.003162 µM); 0.901 with Carfilzomib + Tozasertib (first compound 0.01 µM); 0.866 in the experiment with Carfilzomib + Tozasertib (first compound 0.03162 µM); 0.374 with Carfilzomib + Tozasertib (first compound 0.1 µM); 0.53 with Crizotinib + Palbociclib (first compound 0.01 µM). Moreover, the relative viability was determined as 0.566 in the experiment with Crizotinib + Palbociclib (first compound 0.03162 µM); 0.545 in the experiment with Crizotinib + Palbociclib (first compound 0.1 µM); 0.553 in the experiment with Crizotinib + Palbociclib (first compound 1 µM); 0.487 in the experiment with Carfilzomib + Phenformin (first compound 0.001 µM); 0.461 with Carfilzomib + Phenformin (first compound 0.003162 µM); 0.464 with Carfilzomib + Phenformin (first compound 0.01 µM). Moreover, the relative viability with Carfilzomib + Phenformin (first compound 0.03162 µM) is 0.432; with Carfilzomib + Phenformin (first compound 0.1 µM), 0.261; in the experiment with Carfilzomib + Pemetrexed (first compound 0.001 µM) it was 1.04; with Carfilzomib + Pemetrexed (first compound 0.003162 µM), 1.1; with Carfilzomib + Pemetrexed (first compound 0.01 µM), 1.23; with Carfilzomib + Pemetrexed (first compound 0.03162 µM) it was 0.642. For the same cell line, the relative viability with Carfilzomib + Pemetrexed (first compound 0.1 µM) is 0.294.

Consider PC-14, for which the relative viability with Carfilzomib + Tozasertib (first compound 0.001 µM) is 0.575; in the experiment with Carfilzomib + Tozasertib (first compound 0.003162 µM) it was 0.677; in the experiment with Carfilzomib + Tozasertib (first compound 0.01 µM), 0.69; in the experiment with Carfilzomib + Tozasertib (first compound 0.03162 µM) it was 0.545; in the experiment with Carfilzomib + Tozasertib (first compound 0.1 µM) it was 0.0359; with Crizotinib + Palbociclib (first compound 0.01 µM) it was 0.52. In addition, the relative viability came out at 0.53 in the experiment with Crizotinib + Palbociclib (first compound 0.03162 µM); 0.419 in the experiment with Crizotinib + Palbociclib (first compound 0.1 µM); 0.566 with Crizotinib + Palbociclib (first compound 0.3162 µM); 0.535 with Crizotinib + Palbociclib (first compound 1 µM); 0.549 with Carfilzomib + Phenformin (first compound 0.001 µM); 0.774 with Carfilzomib + Phenformin (first compound 0.003162 µM). Moreover, the relative viability amounted to 0.557 in the experiment with Carfilzomib + Phenformin (first compound 0.01 µM); 0.115 with Carfilzomib + Phenformin (first compound 0.03162 µM); 0.0595 with Carfilzomib + Phenformin (first compound 0.1 µM); 0.145 in the experiment with Carfilzomib + Pemetrexed (first compound 0.001 µM); 0.14 in the experiment with Carfilzomib + Pemetrexed (first compound 0.003162 µM); 0.197 with Carfilzomib + Pemetrexed (first compound 0.01 µM). For the same cell line, the relative viability with Carfilzomib + Pemetrexed (first compound 0.03162 µM) was 0.0596; in the experiment with Carfilzomib + Pemetrexed (first compound 0.1 µM) it was 0.0657.

As for RERF-LC-KJ, the relative viability was 0.501 with Carfilzomib + Tozasertib (first compound 0.001 µM); 0.478 with Carfilzomib + Tozasertib (first compound 0.003162 µM); 0.542 with Carfilzomib + Tozasertib (first compound 0.01 µM); 0.377 with Carfilzomib + Tozasertib (first compound 0.03162 µM); 0.163 in the experiment with Carfilzomib + Tozasertib (first compound 0.1 µM); 0.98 with Crizotinib + Palbociclib (first compound 0.01 µM). The relative viability with Crizotinib + Palbociclib (first compound 0.03162 µM) was 1.12; with Crizotinib + Palbociclib (first compound 0.1 µM), 0.925; with Crizotinib + Palbociclib (first compound 0.3162 µM), 0.991; with Crizotinib + Palbociclib (first compound 1 µM) it was 1.06; in the experiment with Carfilzomib + Phenformin (first compound 0.001 µM), 0.44; with Carfilzomib + Phenformin (first compound 0.003162 µM), 0.421. In addition, the relative viability came out at 0.419 with Carfilzomib + Phenformin (first compound 0.01 µM); 0.354 with Carfilzomib + Phenformin (first compound 0.03162 µM); 0.236 in the experiment with Carfilzomib + Phenformin (first compound 0.1 µM); 0.444 in the experiment with Carfilzomib + Pemetrexed (first compound 0.001 µM); 0.51 with Carfilzomib + Pemetrexed (first compound 0.003162 µM); 0.489 in the experiment with Carfilzomib + Pemetrexed (first compound 0.01 µM). The relative viability with Carfilzomib + Pemetrexed (first compound 0.03162 µM) came out at 0.368; with Carfilzomib + Pemetrexed (first compound 0.1 µM) it was 0.248.
